What was measured:
[1] = system: PC-3 prostate cancer cells; assay: Cell viability assay (CellTiter-Glo) in PC-3 cells; assay type: cell-based, human; settings: for Suppression of viability of PC-3 cells: 1 µM, 48 h (Figure S1); for CC50: Homo sapiens, PC-3 cells, 48 h treatment, read-out: PC-3 cell viability, lethal concentration 50 (LC50)
Description: (§1) Human prostate cancer PC-3, […], and LNCaP cells were obtained from Riken Bioresource Center (Tokyo, Japan) and cultured in Dulbecco’s modified Eagle medium-low glucose (DMEM; Sigma-Aldrich, St. Louis, MO, USA), supplemented with 10% fetal bovine serum (FBS; Biowest SAS, Nuaille, France) and 1% penicillin-streptomycin (Fujifilm Wako Pure Chemicals) at 37 °C in a humidified 5% CO2 atmosphere. For screening, the cells were seeded (3 × 10^3 cells/well) in a 96-well plate and cultured for 24 h in DMEM supplemented with 1% FBS. The tested compounds were then administered to the cells. Forty-eight hours after administration, cell viability was measured using the CellTiter-Glo luminescent cell viability assay (Promega, Madison WI, USA) according to the manufacturer’s protocol. Luminescence signals were measured using a Victor2 microplate reader (PerkinElmer, Boston, MA, USA). For the negative control (0 μM jegosaponin A and B), 0.1% dimethyl sulfoxide (vehicle) was used. Cell viability was calculated as the ratio of the negative controls. The assay was performed in triplicate.

[2] = system: DU145; assay: Cell viability assay (CellTiter-Glo) in DU145 cells; assay type: cell-based, human; settings: 1 µM, 48 h (Figure S1)
Description: as §1

[3] = system: LNCaP; assay: Cell viability assay (CellTiter-Glo) in LNCaP cells; assay type: cell-based, human; settings: 1 µM, 48 h (Figure S1)
Description: as §1

[4] = Zebrafish embryo acute toxicity test (ZFET); set-up: species or system zebrafish (Danio rerio); settings: AB, in vivo, other: embryos exposed in 6-well plates; for LC50 at 120 h: embryos exposed from 5 hpf to 120 hpf; for LC50 at 24 h: embryos exposed from 5 hpf, 24 h after administration (to 24 hpf)
Description: Zebrafish AB strain (Zebrafish International Resource Center, Eugene, OR, USA) was maintained in our facility according to standard operational guidelines. All animal procedures were performed by the Ethics Committee of Mie University, according to the Japanese Animal Welfare Regulation ‘Act on Welfare and Management of Animals’ (Ministry of Environment of Japan), and complied with international guidelines.
ZFETs were performed as previously reported. In brief, blastula stage embryos (approximately 5 h post fertilisation (hpf)) were transferred into 6-well plates and exposed to jegosaponin A or B at 28 °C until 120 hpf. Each group contained nine fish in three triplicates. The number of surviving embryos was counted every 24 h.

[5] = system: sheep red blood cells; assay: Haemolysis assay; assay type: cell-based; settings: Ovis aries, Erythrocyte; RBC, 1 h (Table 1); read-out: RBC Hemolysis HD50 (1 h)
Description: A haemolysis assay was performed as previously reported. Five millilitres of sheep defibrinated blood (Nippon Bio-Supp. Centre, Tokyo, Japan) was diluted in 45 mL of Dulbecco’s phosphate-buffered saline (DPBS) to obtain a total volume of 50 mL. The cell suspension was centrifuged at 500× g for 5 min, and the supernatant was discarded. This procedure was repeated three times, and DPBS was added to the precipitate, and the red blood cell (RBC) count was adjusted to ~5×10^8 cells/mL. The RBC suspension (500 µL) was placed into a 1.5 mL storage tube, and the reagent was administered and incubated for 30 min on ice. […] The cell suspension was then centrifuged at 500× g for 5 min. The haemoglobin concentration in the supernatant was measured by measuring the UV absorbance at 540 nm.

[6] = system: PC-3 cells; assay: DRAQ7 membrane permeability assay in PC-3 cells; assay type: cell-based; settings: Homo sapiens; for IC50: 1 h (Table 1); for EC50: DRAQ7 membrane-impermeable dye, read-out: EC50 of DRAQ7 nucleus staining (DRAQ7 positive cells)
Description: (§2) PC-3 cells were seeded (4 × 10^3 cells/well) in ibidi 8-well μ-Slide (Ibidi, Munich, Germany) in DMEM supplemented with 10% FBS and cultured for 24 h. Then, DRAQ7 (DRAQ7 DROP & GO; Biostatus, Shepshed, UK) and the tested compounds were added to the cells. After an appropriate time, the cells were imaged using a BZ-X710 fluorescence microscope (Keyence, Tokyo, Japan). For zebrafish embryos, 48 hpf embryos were treated with DRAQ7 and the tested compounds and imaged using a BZ-X710 fluorescent microscope.

[7] = system: 48 hpf zebrafish; assay: DRAQ7 membrane permeability assay in zebrafish; assay type: in vivo, zebrafish (Danio rerio); settings: for Lethality to zebrafish embryos at high concentration: 60 min; for DRAQ7 signals in zebrafish (cell membrane permeability): 30 min of exposure, mainly tail regions
Description: as §2

[8] = system: caspase-3 and caspase-7; assay: Caspase 3/7 assay (Caspase-Glo 3/7) in PC-3 cells; assay type: cell-based, human; settings: for Caspase 3/7 activities in PC-3 cells: 3 or 6 h; for Induction of caspase-3 and caspase-7 activities: PC-3 cells, sub-IC50 concentrations
Description: PC-3 cells were seeded (3 × 10^3 cells/well) in a 96-well plate in DMEM containing 10% FBS for 24 h and treated with the test compounds. Caspase-Glo 3/7 assay (Promega) was performed according to the manufacturer’s instructions. Luminescence signals were measured using a Victor2 microplate reader (PerkinElmer).

SMILES	Suppression of viability of PC-3 cells [1]	CC50 [1] [nM]	LC50 at 120 h [4] [nM]	LC50 at 24 h [4] [nM]	EC50 [5] [nM]	IC50 [6] [nM]	EC50 [6] [nM]	DRAQ7 signals in zebrafish (cell membrane permeability) [7]	Induction of caspase-3 and caspase-7 activities [8]	other results
C/C=C(\C)C(=O)O[C@H]1[C@H](OC(C)=O)[C@@]2(CO)C(CC1(C)C)C1=CCC3[C@@]4(C)CC[C@H](O[C@@H]5O[C@H](C(=O)O)[C@@H](O[C@@H]6O[C@H](CO)[C@H](O)[C@H](O)[C@H]6O[C@@H]6O[C@@H](C)[C@H](O)[C@@H](O)[C@H]6O)[C@H](O)[C@H]5O[C@@H]5O[C@H](CO)[C@@H](O)[C@H](O)[C@H]5O)C(C)(C)C4CC[C@@]3(C)[C@]1(C)C[C@H]2O (stereo partly drawn) [Jegosaponin A, jegosaponin A]	suppress viability	700	500	700	2100	3400	3400 ± 600	apparently increased DRAQ7 signals	no apparent induction of their activities	Suppression of viability of DU145 cells [2]: suppress viability; Suppression of viability of DU145 cells ([2]; listed as jegosaponin A): suppressed the viability; Suppression of viability of LNCaP cells [3]: suppress viability; Suppression of viability of LNCaP cells ([3]; listed as jegosaponin A): suppressed the viability; Lethality to zebrafish embryos at high concentration ([7]; 6 μM): killed all embryos; Caspase 3/7 activities in PC-3 cells ([8]; 1.5 µM): do not affect caspase 3/7 activities
C/C=C(\C)C(=O)O[C@H]1[C@H](O)[C@@]2(COC(C)=O)C(CC1(C)C)C1=CCC3[C@@]4(C)CC[C@H](O[C@@H]5O[C@H](C(=O)O)[C@@H](O[C@@H]6O[C@H](CO)[C@H](O)[C@H](O)[C@H]6O[C@@H]6O[C@@H](C)[C@H](O)[C@@H](O)[C@H]6O)[C@H](O)[C@H]5O[C@@H]5O[C@H](CO)[C@@H](O)[C@H](O)[C@H]5O)C(C)(C)C4CC[C@@]3(C)[C@]1(C)C[C@H]2O (stereo partly drawn) [Jegosaponin B, jegosaponin B]	suppress viability	1600	1300	1400	20200	6000	6000 ± 1200	apparently increased DRAQ7 signals	no apparent induction of their activities	Suppression of viability of DU145 cells ([2]; listed as B): suppress viability; Suppression of viability of DU145 cells ([2]; listed as jegosaponin B): suppressed the viability; Suppression of viability of LNCaP cells ([3]; listed as B): suppress viability; Suppression of viability of LNCaP cells ([3]; listed as jegosaponin B): suppressed the viability; Lethality to zebrafish embryos at high concentration ([7]; 12 μM): killed all embryos; Caspase 3/7 activities in PC-3 cells ([8]; 0.5 µM): do not affect caspase 3/7 activities

Reference: paper PMC8246325, “Toxicity of Jegosaponins A and B from Styrax japonica Siebold et al. Zuccarini in Prostate Cancer Cells and Zebrafish Embryos Resulting from Increased Membrane Permeability” (International Journal of Molecular Sciences, 2021)
